A word on the viability: it is a read-out of living cells in per cent, often relative to untreated cells.

The test deals with Molm13. Kind of test: cells. Details: Molm13 cell viability screen of virtual-screening hits, 4 days of treatment, per cent of control. To be noted: Homo sapiens, MOLM-13, 96 h, 4 days. Here is the method:
We performed virtual screening. Briefly, we screened compounds for binding affinity to PRMT9; compounds were from the National Cancer Institute (NCI) and ZINC library (Fig. 4a,b). […] We used doses of 1 and 5 µM in a Molm13 cell-based viability assay (Extended Data Fig. 6a). […] Specifically, we assessed their effects on PRMT9 catalysis (Extended Data Fig. 6b). […] Cells were treated for 4 days with 1 or 5 μM compounds. For each compound, the number represents its library ID. Experiments were triplicated; P values were derived from t tests. b, R493 methylation assay. […] Catalytic activity was assessed by anti-R493 antibody. Synthesized R493me peptide as positive control. c, Catalysis screen of top 20 compounds. PRMT9 protein was pretreated with indicated compound (10 μM), then incubated with PABPC1 peptides and SAM. d, e, Catalytic activity of indicated compounds based on R493 methylation assay (d). Inhibition curves were calculated based on intensity of dots and normalized to DMSO (e). […] LD2 is designed based on NSC641396 (g). Docking model of NSC641396 in the catalytic pocket (f). h, IC50 analysis of LD2 in B-NHL lines. Cells were treated for 4 days with LD2. […] Cells were treated with a dose titration of 0.5–40 μM LD2 for 48 hr. The inhibition activity of LD2 to PRMT9 (right red curve) was evaluated by calculating the normalized PABPC1 R493 methylation signal. The inhibition activity of LD2 to PRMT5 (right blue curve) was evaluated by calculating the normalized SmB’B’ methylation signal (supplementary Fig. 2). k, Vina docking of LD2 with PRMT9, PRMT5, CARM1 or PRMT7 was performed, and the average docking scores (kcal/mol, with standard deviation) were shown. l, Molecular dynamics simulation analyses of LD2 with PRMT9 or PRMT5.
For `Cc1ccc(NC(=S)NC(=O)c2ccccc2)cc1NC(=S)NC(=O)c1ccccc1` [NSC5856], the viability at 1 µM amounted to 91.4% and the viability at 5 µM was determined as 91.5%. For `CCN1Cc2c(/C=C/c3ccccc3)nc3ccc(OC)cc3c2N(c2cccc(Cl)c2)C1` [NSC340852], in that order: 88.3% and 53.2%.

As for `OC(COc1cccc2ccccc12)CN1CCN(c2ccccc2Cl)CC1` (centres unmarked) [NSC91396], the viability at 1 µM was determined as 147% and the viability at 5 µM is 143%.

As for `O=C1c2cccc(Oc3ccccc3)c2C(=O)c2cccc(Oc3ccccc3)c21` [NSC37627], the viability at 1 µM amounted to 144% and the viability at 5 µM was 151%. As for `COc1cc2c(cc1OC)C(=O)Cc1ccc3c(c1CN(C)CC2)OCO3` [NSC32984], the viability at 1 µM came out at 137%.

Take `O=C(/C=C/C(=O)N1CCc2ccccc2C1)N1CCc2ccccc2C1` [NSC87838]: the viability at 1 µM amounted to 92.3% and the viability at 5 µM came to 92.6%. With `Clc1cc2c(c(CSc3nc4ccccc4n4cccc34)c1)OCOC2` [NSC321491], the viability at 5 µM is 85.7%. The same measure, in the same setting: the same measure for `COc1ccccc1/C=C1\Cc2ccccc2C1=O` [NSC636717]: 86%. With `O=C1c2cccc(Sc3ccccc3)c2C(=O)c2c(Sc3ccccc3)cccc21` [NSC156516], the viability at 1 µM amounted to 122% and the viability at 5 µM came out at 118%. Consider `Clc1ccccc1/C=C/c1ccnc2ccccc12` [NSC15784], for which the viability at 1 µM amounted to 85.7% and the viability at 5 µM is 81.7%. Consider `c1ccc(-c2nc(-c3nccc4ccccc34)oc2-c2ccccc2)cc1` [NSC25457], for which the viability at 5 µM was found to be 110%. As for `CCCc1cc(=O)oc2c3c(c4c(c12)OC(C)(C)C=C4)OC(C)[C@H](C)[C@@H]3O` (some centres unmarked) [NSC661122], the viability at 1 µM was 100% and the viability at 5 µM was 79.3%. Turning to `Brc1ccc(-c2csc(Nc3nc(-c4ccc(Br)cc4)cs3)n2)cc1` [NSC55691], the viability at 5 µM was 114%. Consider `O=C(/C=C/c1ccc(O)c(O)c1)O[C@@H]1C[C@@](OC(=O)/C=C/c2ccc(O)c(O)c2)(C(=O)O)C[C@@H](O)[C@@H]1O` [NSC91529], for which the viability at 1 µM stood at 110%. Turning to `Cc1nn(-c2ccccc2)nc1C(=O)Nc1ccc2[nH]ncc2c1` [NSC371765], the viability at 5 µM is 86.1%. In the case of `Cn1ncc2c(Nc3ccccc3Cl)nc(Nc3ccccc3Cl)nc21` [NSC19061], the viability at 1 µM came out at 158%.

For `CCN(CC)c1ccc(/C=C/c2cc(-c3ccccc3)c3ccccc3n2)cc1` [NSC13487], the viability at 1 µM amounted to 93.3% and the viability at 5 µM came out at 94.8%.

On to `CC(=O)Oc1ccc2cc(-c3ccccc3)c(=O)oc2c1` [NSC17055], for which the viability at 5 µM came out at 102%.

In the case of `OC(COc1cccc2ccccc12)CN1CCN(c2ccc(Cl)cc2)CC1` (centres unmarked) [NSC111210], the viability at 1 µM came to 160% and the viability at 5 µM came to 139%. For `Cc1cc(N2CCN(C)CC2)n2nc(-c3ccc(Cl)cc3)nc2n1` [NSC252359], in that order: 64% and 75.8%.

`OC(c1cc(-c2ccc(C(F)(F)F)cc2)nc(C(F)(F)F)c1)C1CCCCN1` (centres unmarked) [NSC305798]: the viability at 1 µM came to 91% and the viability at 5 µM was 18.9%. The matching figures for `O=[N+]([O-])c1ccc2[nH]c3nc4ccccc4nc3c2c1` [NSC78697]: 169% and 157%. Turning to `COc1cc2c(=O)n3c4c(cccc4c2cc1OC)CC3` [NSC276736], the viability at 1 µM stood at 97.9%. Take `O=C(Nc1ccc(Nc2ccncc2)cc1)c1ccc(Nc2ccnc3ccc([N+](=O)[O-])cc23)cc1[N+](=O)[O-]` [NSC202386]: the viability at 1 µM worked out at 118% and the viability at 5 µM came to 80.4%. Turning to `Cc1cccc2cc3cccc(C)c3nc12` [NSC61888], the viability at 1 µM amounted to 144% and the viability at 5 µM came to 134%. Consider `COc1cccc(/C=C2\CCc3ccccc3C2=O)c1` [NSC636718], for which the viability at 5 µM was 65.6%.

Values taken from publication PMC11056319, “Targeting PRMT9-mediated arginine methylation suppresses cancer stem cell maintenance and elicits cGAS-mediated anticancer immunity” (Nature Cancer, 2024).
